The source of these data is patent publication US20220162552A1, “Nonviral Modification of T Cell Gene Expression” (Precision NanoSystems Inc., priority 2019, published 2022).

What all share (type): cell-based
Assay [1] relates to primary human T cells (live CD4+/CD8+ T cells). The experiment in a line: eGFP mRNA LNP transfection of activated T cells on day 7, 2 μg mRNA per 500,000 cells, flow cytometry after 48 h. The settings on record: for MFI results by ionizable lipid: MC3 versus BOCHD-C3-DMA; for activity of the lipid mix composition to transfect T cells by ionizable lipid (FIG. 10 upper): same ratios and materials, ionizable lipid varied. The protocol: All reagents from StemCell Technologies unless otherwise stated. T cells were isolated from whole human peripheral blood using a negative selection isolation procedure (EasySep™ Human T Cell Isolation Kit). T cell activation and expansion was carried out using Immunocult™ Human CD3/CD28/CD2 Activator in ImmunoCult™ Human T Cell Expansion Media supplemented with recombinant human IL-2 (Peprotech Inc., Rocky Hill USA). T cells typically enter a logarithmic phase of growth 48-96 hours after activation, which phase is characterized by a period of rapid proliferation and metabolic activity for 24-72 hours followed by a plateau in the growth curve as the cells start to return to a quiescent state. As depicted in FIG. 1, T cells may be exposed to lipid nucleic acid before or during the log phase of growth (day 3), or after the log phase of growth (day 7).
We tested the compositions of new Lipid Mixes against standard Lipid Mix A (all with BOCHD-C3-DMA as IL unless otherwise stated) using the triple T cell activation protocol (Pan T cells were activated with trio activator comprising anti-CD3/CD28/CD2 antibody) in LNP-mediated mRNA delivery and expression in vitro.
LNP formulated EGFP mRNA (Trilink Biotechnologies, San Diego, Calif.) was added to 500,000 T cells in 1 mL of complete T cell media, with 1 μg/mL of Recombinant Human ApoE4 (“ApoE”) (Peprotech Inc.).
The volume of LNAP required to achieve the desired dose of mRNA was calculated based on the concentration of encapsulated mRNA as determined by modified Ribogreen™ assay. T cells were counted through Trypan blue (Sigma) exclusion and diluted to 500,000 cells/mL. Briefly, in a 12 well plate, 1 mL was aliquoted into each well. ApoE was added to a final concentration of 1 ug/mL in each well. Based upon the calculation in step 1, the required amount of mRNA LNP was added, in this case 2 μg, and the plate incubated for 48 hours.
Different lipid mix compositions were tested for their ability to induce transfection as measured by geometric mean fluorescence intensity of GFP expressed in T cells (as measured by flow cytometry).
Three isolations of T cells were taken from a single donor and divided into three groups: Pan T cells (all T cells), CD4+ T cells alone, and CD8+ T cells alone. At 48H following lipid particle mRNA exposure, the treated T cells were harvested by transferring the cell suspensions to pre-labeled 1.5 mL tubes and centrifuged 300×g at 4 degrees Celsius for 10 minutes. Supernatant was removed and the pellet resuspended in PBS. An amount of 0.5 ul of BD Horizon™ Fixable Viability Stain 575V™ (BD Biosciences) was added, and the mixture incubated in the dark for 10 minutes at RT. The cells were centrifuged again as before, then washed twice with 1 mL of Stain buffer (BSA, BD Pharminigen), and the washed pellet placed in 100 μl BSA. The following antibodies were added to each tube of treated cells in 2 μl volumes: anit-CD25, anti-CD8, anti-CD4, (PerCP-Cy 5.5 Mouse Anti Human CD25, BV786 Mouse Anti-Human CD8 Clone RPA-T8, and APC-Cy™ 7 Mouse Anti-Human CD4 Clone SK3, all from BD Pharmingen). For compensation purposes, in the GFP only sample and viability control, no antibody was added, while in the single stain compensation tubes, only one antibody was added.
The tubes were incubated at 4 degrees C. for 30 min, whereupon […] of stain buffer (BSA) was added, and the cells were centrifuged again. Cells were washed once with 1 mL of stain buffer and spun down again as in step 1. Cell pellets were resuspended in 1 mL of stain buffer and added to pre-labeled flow tubes with cell strainer caps (Corning Falcon).
Histogram Analysis of T Cell Populations was generated as follows: Flow cytometry was performed on the live primary human T cells. […] All LNP compositions contained BOCHD-C3-DMA as ionizable lipid (IL). […]
On the technique in general: Flow cytometry measures light scatter and fluorescence of single cells or particles in a stream.

For assay [2], the system named is isolated primary human T cells. The assay is described as follows: eGFP mRNA LNP transfection of T cells, 125,000 cells per well format (day 3/4/7), flow cytometry. The settings on record: CT10 composition, six donors, day 7. The method, then:
Isolation of primary T cells from human whole blood and activation/expansion was performed as in general procedures above. Isolated T cells were exposed to the formulated mRNA three days after activation; in the T cell growth curve, this time point corresponds to just before or at the log phase of growth. A dose of 125 ng of CleanCap™ EGFP (Trilink Biotechnologies, San Diego, Calif.) mRNA encapsulated in LNP (see details below) was added to about 125,000 T cells in 0.25 mL of complete T cell media, with 1 ug/mL of Recombinant Human ApoE4 (“ApoE”) (Peprotech Inc., Montreal, Canada).
The volume of LNP required for T cell treatment was calculated based upon Ribogreen™ assay results. T cells were counted through Trypan blue (Sigma) exclusion and diluted to 500,000 cells/mL. […]
Lipid mix compositions were tested for their ability to induce transfection, using flow cytometry to measure the geometric mean fluorescence intensity of eGFP. Shown in FIG. 11 A(i) to D(ii) are the transfection efficiencies (i) and mean fluorescence intensities (ii) of mRNA LNPs encoding eGFP in isolated primary human T cells under various conditions. […]
GFP expression in isolated primary human T cells mediated by mRNA-LNPs containing BOCHD-C3-DMA with CT10 composition at N/P 8 is shown in FIG. 16. Transfection efficiency, viability and GFP MFI measured by flow cytometry 48 hours after LNP addition. […]

Assay [3] has as its system primary human T cells. The assay is described as follows: EPO mRNA LNP delivery to T cells, Human Epo ELISA. To be noted: CT10 LNPs, 48 h. The protocol:
Reagents were acquired from Quantikine, Minneapolis, Minn. The assay was performed as directed on the Quantikine® IVD® ELISA Human Erythropoietin Immunoassay protocol REF DEP00 Package Insert. Briefly; primary human T cells were isolated from fresh whole blood using a negative selection protocol and activated using a triple activator. At 7 days post-activation, the cells were treated with mRNA LNPs encoding EPO at 2 μg mRNA per 500,000 cells and N/P 10. After 48 hours of treatment with mRNA LNPs, the T cells were harvested and lysed for cytosolic EPO and media supernatant was sampled for secreted EPO. Quantikine® Human Serum Controls were used.
Frozen human T cells, previously isolated from fresh human whole blood using a negative selection protocol, were thawed and activated using a triple activator as previously described. At seven days post-activation, T cells were dosed with CT10 formulated mRNA LNPs encoding recombinant human erythropoietin (EPO) determined by ELISA (R&D Systems) at 2 μg mRNA per 500,000 cells and N/P 10. After 48 hours of treatment with mRNA LNPs the T cells were harvested and lysed for cytosolic EPO and media supernatant was sampled for secreted EPO.

For the molecule `CCCCCCCCC1CC1CCCCCCCCC(CCCCCCCCC1CC1CCCCCCCC)OC(=O)CCCN(C)C.Cl` (stereo not drawn) [BOCHD-C3-DMA, 1,17-bis(2-octylcyclopropyl)heptadecan-9-yl 4-(dimethylamino) butanoate hydrochloride], in assay [1], the “MFI results by ionizable lipid” value is recorded as “comparable” and the “activity of the lipid mix composition to transfect T cells by ionizable lipid (FIG. 10 upper)” value (“activity … (FIG. 10 upper)” below) is “without affecting the activity of the lipid mix composition to transfect T cells”. For the same molecule, the “donor to donor variability by ionizable lipid (FIG. 15)” value in assay [2] is “no substantial difference”. Besides, the “level of secreted EPO by ionizable lipid” value in assay [3] is reported as “higher level of secreted EPO than MC3 LNPs”.
`CCCCCCCCCCCCCCCCCC(=O)OC[C@H](COP(=O)([O-])OCC[N+](C)(C)C)OC(=O)CCCCCCCCCCCCCCCCC` [DSPC, distearoylphosphatidylcholine]: in assay [1] (Lipid Mix CT22 ratios, structural lipid DOPE or DSPC, N/P 10), the “T cell transfection by structural lipid (FIG. 8)” value is “better than DOPE”.
Consider `CCCCC/C=C\C/C=C\CCCCCCCCC1(CCCCCCCC/C=C\C/C=C\CCCCC)OCC(CCN(C)C)O1` (stereo not drawn) [KC2, 2,2-dilinoleyl-4-(2-dimethylaminoethyl)-[1,3]-dioxolane, reference compound], for which, in assay [1], the “activity … (FIG. 10 upper)” value was “without affecting the activity of the lipid mix composition to transfect T cells”.
As to `CCCCCC=CCC=CCCCCCCCCC(CCCCCCCCC=CCC=CCCCCC)OC(=O)CCCN(C)C` (stereo not drawn) [MC3, heptatriaconta-6,9,28,31-tetraen-19-yl 4-(dimethylamino)butanoate, reference compound], in assay [1], the “MFI results by ionizable lipid” value is “comparable” and the “activity … (FIG. 10 upper)” value was “without affecting the activity of the lipid mix composition to transfect T cells”. In addition, the “donor to donor variability by ionizable lipid (FIG. 15)” value in assay [2] is “no substantial difference”.
